Results on one molecule are retold here after PMC4000412, “Novel LHRH-receptor-targeted cytolytic peptide, EP-100: first-in-human phase I study in patients with advanced LHRH-receptor-expressing solid tumors” (Cancer Chemotherapy and Pharmacology, 2014).

As usually defined, the clearance is the rate of elimination divided by the concentration. A lower clearance goes with inefficient removal. As a reminder, the half-life is the time needed for the level to fall by half in the phase considered.

Molecules are shown by their SMILES. Entries after “also recorded” stand apart in the source; their conditions may differ. Like-named read-outs stand apart in the source and are kept apart here. Peptide text beside a SMILES is read from it.

The test system of data set [1] is advanced LHRH-receptor-expressing solid tumors. Put plainly: Antitumor activity by RECIST version 1.1, tumor biomarkers and CTC. It is filed as in vivo, human. As to the method:
A history and physical examination were conducted pre-study and before every cycle. A complete blood count, serum electrolytes and chemistries were evaluated pre-study and then weekly. Tumor response or progression was assessed by imaging studies at baseline and after every 2 cycles. RECIST version 1.1 criteria were used to assess response.
FSH and LH levels as well as testosterone in men and estradiol levels in women were obtained on Days 1, 8, 15 and 22 within 24 h prior to dosing. Testosterone and estradiol levels were measured on Day 1 only after Cycle 1 and at off study assessment. Blood was collected for circulating tumor cells (CTC) prior to dosing on Day 1 of the first cycle. Patients with positive CTC at baseline also had blood collected for CTC analysis prior to dosing on Day 1 of each subsequent cycle. Additional studies included plasma cortisol, adrenocorticotropin (ACTH), thyroxine (T4) and thyroid-stimulating hormone (TSH) and blood for tumor specific biomarker analysis (at investigator’s discretion), all obtained prior to Day 1 dosing with each cycle and at off study assessment. Samples for antidrug antibodies (ADA) were collected on Day 1 of Cycle 1 and then on Day 1 of every odd cycle.

Data set [2] can be described thus: Antidrug antibodies (anti-EP-100) ELISA in human serum. Particulars: any dose level. It is filed as in vivo. The protocol:
ADA were evaluated using an enzyme linked immunoassay validated for the detection of antibodies against EP-100 (anti-EP-100) (Icon plc, formerly Prevalere Life Sciences, LLC, Whitesboro, NY). Antibodies were produced in rabbits against the lytic peptide moiety of EP-100 (APC 338983). Antibodies against EP-100 in human serum were detected by coating 96-well microtiter plates with peptide 338983. At least two wells from each plate were coated with human IgG at 500 ng/mL as controls for the goat antihuman horseradish peroxidase detector. Rabbit anti-EP-100 polyclonal antibody was used as a positive control. The plates were washed, and a mixture of goat antirabbit HRP and goat antihuman HRP and tetramethylbenzidine peroxide substrate were added, and the color development determined in a spectrophotometer at 450 and 620 nm wavelength. The developed color was proportional to the amount of anti-EP-100 antibody in the sample. The anti-EP-100 antibodies in serum were quantified from a calibration curve prepared from the positive control and ranged from 500 to 32,000 ng/mL in 100 % human serum.
Background: In an ELISA, binding on a coated surface is turned into a signal by an enzyme label.

The nature of data set [3]: Plasma pharmacokinetics of EP-100 after IV infusion (phase I). It is filed as in vivo, human. Conditions: for time at which C max was reached: majority of patients. As to the method:
Blood samples (approximately 5 mL) were collected on Cycle 1 Day 1 at the following times: pre-dose, 10 and 20 min after start of EP-100 infusion, prior to completion of the infusion (−3 min) and 2, 15, 30, 60 (±2), 120 (±2) and 240 (±5) min after the infusion. Concentrations of EP-100 in EDTA-anticoagulated plasma were assayed by a validated HPLC-Mass Spectrometry method developed at Covance (Indianapolis, IN). EP-100 and the internal standard were extracted from human plasma by solid-phase extraction and analyzed using liquid chromatography with tandem mass spectrometric detection (MS/MS). The lower limit of quantitation for EP-100 in human plasma was 0.025 μg/mL, with linearity demonstrable to 5 μg/mL (upper limit of quantitation). Plasma PK analysis for EP-100 was performed using non-compartmental methods with Phoenix™ WinNonlin® version 6.1 or higher (Pharsight Corp., Mountain View, CA). Concentration–time profiles were constructed from the plasma sample data. Estimates of the area under the plasma concentration time curve (AUC) and slope of the terminal decay phase were used to calculate values of the following pharmacokinetic parameters: apparent terminal phase half-life (t 1/2), total body clearance (CL), apparent time of maximum concentration (T max) and apparent volume of distribution (V z). Means and standard deviations are presented where applicable. Phoenix™ WinNonlin® was used to identify the terminal linear phase of the concentration–time profile. The number of points chosen was determined based on the largest regression coefficient, R ^2, obtained. A minimum of three data points was used for determination of λ z, the elimination rate constant, determined by the slope of the terminal linear phase. The R ^2 had to be ≥0.8 to be included in the pharmacokinetic results. Summary statistics were prepared using Microsoft Excel 2007, and graphics were prepared with SigmaPlot™ version 11.2 (Systat Software Inc., Richmond, CA).

For data set [4] the following is noted: ref Esperance data on file, cited from earlier work. As to the method:
A conservative first-in-human starting dose of 0.6 mg/m^2 was chosen, based on the repeat-dose toxicity studies in dogs (which appeared to be the most sensitive species). The initial dose schedule of one 30 min infusion weekly was pre ...

Data set [5] has as its system LHRH-receptor-positive cell lines. Conditions: in vitro; cited from earlier work. An excerpt:
(§1) A phase 2 clinical trial te ...

The subject of data set [6] is breast cancer model. Conditions: in vivo breast cancer model; ref Esperance, data on file; cited from earlier work.
From the text: as §1

As for `CC(C)C[C@H](NC(=O)CNC(=O)[C@H](Cc1ccc(O)cc1)NC(=O)[C@H](CO)NC(=O)[C@H](Cc1c[nH]c2ccccc12)NC(=O)[C@H](Cc1c[nH]cn1)NC(=O)[C@@H]1CCC(=O)N1)C(=O)N[C@@H](CCCNC(=N)N)C(=O)N1CCC[C@H]1C(=O)NCC(=O)N[C@@H](CCCCN)C(=O)N[C@@H](Cc1ccccc1)C(=O)N[C@@H](C)C(=O)N[C@@H](CCCCN)C(=O)N[C@@H](Cc1ccccc1)C(=O)N[C@@H](C)C(=O)N[C@@H](CCCCN)C(=O)N[C@@H](CCCCN)C(=O)N[C@@H](Cc1ccccc1)C(=O)N[C@@H](C)C(=O)N[C@@H](CCCCN)C(=O)N[C@@H](Cc1ccccc1)C(=O)N[C@@H](C)C(=O)N[C@@H](CCCCN)C(=O)N[C@@H](CCCCN)C(=O)N[C@@H](Cc1ccccc1)C(=O)N[C@@H](C)C(=O)N[C@@H](CCCCN)C(=O)O` [EP-100] (HELM PEPTIDE1{[Glp].H.W.S.Y.G.L.R.P.G.K.F.A.K.F.A.K.K.F.A.K.F.A.K.K.F.A.K}$$$$V2.0; C-terminus assumed), the “objective tumor responses (RECIST version 1.1)” value in data set [1] (37 patients, EP-100 single agent) is reported as “No complete or partial tumor responses; also recorded: No objective tumor responses”. Also, in data set [1] (patients), the “treatment-related change in tumor biomarkers (CA-125 or PSA) or CTC values” is “no treatment-related decreases”. Moreover, in data set [1] (seven of 37 patients, EP-100 single agent), the “clinical benefit: patients with stable disease for 16 weeks or longer” value is on record as 19%. The “antibodies to EP-100 (ADA)” value in data set [2] was “not detected”. Besides, the “increase in C max with dose” value in data set [3] (0.6-40 mg/m^2, data highly variable) was “slightly greater than dose proportional”. Further, the “time at which C max was reached” value in data set [3] (EP-100 given over 30 min IV) lay within 20 to 40 min; in data set [3] (EP-100 given over 60 min IV), 40 to 60 min. For the same molecule, in data set [3] (doses of 5.2 mg/m^2 and above), the “plasma concentrations versus concentrations active in vitro” value is given as “reached the predicted “therapeutic” concentrations”. The “volume of distribution, V z” value in data set [3] (doses of 7.8 to 17 mg/m2 IV) is listed as 2,400 to 2,666 mL. The clearance in data set [3] (human, plasma, 0.6 mg/m2, dose 0.6 mg/m^2 IV) came to 299 mL/min; in data set [3] (human, plasma, 5.2 mg/m2, dose 5.2 mg/m^2 IV), 143 mL/min; in data set [3] (human, plasma, 7.8 mg/m2, dose 7.8 mg/m^2 IV) it was 223 mL/min; in data set [3] (human, plasma, 11.7 mg/m2, dose 11.7 mg/m^2 IV) it was 222 mL/min; in data set [3] (human, plasma, 17 mg/m2, dose 17 mg/m^2 IV), 110 mL/min. Also, the Vd is 4.35 L in data set [3] (human, plasma, 0.6 mg/m2, dose 0.6 mg/m^2 IV, read-out: volume of distribution, V z); 1.56 L in data set [3] (human, plasma, 5.2 mg/m2, dose 5.2 mg/m^2 IV, read-out: volume of distribution, V z); about 0.06 L/kg in data set [3] (human, plasma, doses of 7.8 to 17 mg/m2 IV, read-out: volume of distribution, V z per body weight). Moreover, the AUC(0-inf) in data set [3] (human, plasma, 40 mg/m2, highest dose level tested (40 mg/m^2), IV infusion, mean ± SD, read-out: mean AUC0–∞ (converted)) is 5430 ng·h/mL. Moreover, the Cmax in data set [3] (human, plasma, 40 mg/m2, highest dose level tested (40 mg/m^2), IV infusion, mean ± SD, read-out: mean C max) was found to be 4760 ng/mL. In addition, the half-life in data set [3] (human, plasma, 40 mg/m2, patients, IV infusion, highest dose tested (40 mg/m^2), read-out: terminal half-life) was about 15 min. Besides, the “highest non-severely toxic dose” value in data set [4] (repeat-dose animal studies) is listed as 2.0 mg/kg/dose. In addition, the “pharmacologic effect on pituitary LH and FSH” value in data set [4] (some animals, with reduction in uterine and epididymal weights) is “reduction in pituitary production”. Further, the “effect of combination with pgp substrates (doxorubicin, paclitaxel, vinorelbine, vincristine) and non-pgp substrates (cisplatinum, 5-fluorouracil)” value in data set [5] is “reversion of drug resistance and potentiation of toxicity”. For the same molecule, in data set [6], the “tolerability of combination EP-100 with paclitaxel” value is recorded as “well tolerated”.
